Measured values: ChEMBL document CHEMBL1629524, “2-Azetidinone--a new profile of various pharmacological activities” (Eur J Med Chem, 2010)
Converted amounts (≈) assume the structure as drawn. One block for each compound: values may come before it.

Columns and labels:
Pseudomonas aeruginosa = experiment: Antimicrobial activity against Pseudomonas aeruginosa ATCC 10145; type: functional
[1] = Inhibition of human Tryptase
Chymase = target: T1, Chymase (Homo sapiens, UniProt P23946); experiment: Inhibition of human Chymase
T1 sequence (P23946 whole entry): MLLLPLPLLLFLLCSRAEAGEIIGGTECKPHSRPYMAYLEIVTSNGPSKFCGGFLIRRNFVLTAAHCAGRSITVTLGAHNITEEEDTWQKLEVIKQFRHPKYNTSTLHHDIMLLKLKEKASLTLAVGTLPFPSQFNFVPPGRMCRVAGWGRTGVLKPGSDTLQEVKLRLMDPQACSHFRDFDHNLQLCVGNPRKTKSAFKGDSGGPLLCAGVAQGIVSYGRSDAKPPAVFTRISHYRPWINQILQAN

[2] = target: 72 kDa type IV collagenase (Homo sapiens, UniProt P08253); experiment: Inhibition of MMP2
Sequence of 72 kDa type IV collagenase (P08253 whole entry): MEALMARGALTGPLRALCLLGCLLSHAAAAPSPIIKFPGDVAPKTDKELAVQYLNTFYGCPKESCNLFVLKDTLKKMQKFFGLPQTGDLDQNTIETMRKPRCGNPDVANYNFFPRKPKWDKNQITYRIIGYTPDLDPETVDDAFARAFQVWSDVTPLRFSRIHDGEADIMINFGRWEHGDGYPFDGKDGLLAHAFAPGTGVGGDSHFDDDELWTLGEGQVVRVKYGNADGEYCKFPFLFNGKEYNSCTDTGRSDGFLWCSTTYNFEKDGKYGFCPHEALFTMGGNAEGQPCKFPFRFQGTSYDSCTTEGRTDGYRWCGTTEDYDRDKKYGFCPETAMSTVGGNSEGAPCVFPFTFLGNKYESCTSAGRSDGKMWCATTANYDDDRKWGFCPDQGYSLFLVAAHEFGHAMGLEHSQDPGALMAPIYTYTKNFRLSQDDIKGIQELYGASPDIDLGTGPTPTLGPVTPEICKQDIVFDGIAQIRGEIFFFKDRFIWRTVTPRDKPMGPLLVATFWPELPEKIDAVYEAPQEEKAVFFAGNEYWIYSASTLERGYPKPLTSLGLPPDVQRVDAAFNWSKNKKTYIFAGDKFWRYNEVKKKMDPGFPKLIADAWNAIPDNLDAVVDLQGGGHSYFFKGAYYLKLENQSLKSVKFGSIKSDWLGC

[3] = Inhibition of bovine brain tubulin polymerization; design: species or system Bos taurus
Hamster [4] = experiment: Antidyslipidemic activity in hamster assessed as reduction in hepatic cholesteryl esters; type: functional; conditions: Cricetinae
Rhesus monkey = experiment: Antidyslipidemic activity in cholesterol-fed rhesus monkey assessed as reduction in plasma cholesterol; type: functional; conditions: Macaca mulatta
Hamster [5] = experiment: Antidyslipidemic activity in cholesterol-fed hamster assessed as reduction in plasma cholesterol; type: functional; conditions: Cricetinae
Rattus norvegicus = species on record: Rattus norvegicus; experiment: Antidyslipidemic activity in cholesterol-fed rat assessed as reduction in plasma cholesterol; type: functional
HepG2 = experiment: Antidyslipidemic activity in human HepG2 cells assessed as inhibition of cholesterol esterification; type: functional, cell-based
[6] = Antidyslipidemic activity in rat hepatic microsomes assessed as inhibition of […]; type: functional, Liver
Caco-2 = experiment: Antidyslipidemic activity in human Caco2 cells assessed as inhibition of cholesterol esterification; type: functional, cell-based
Neutrophil elastase = target: T2, Neutrophil elastase (Homo sapiens, UniProt P08246); experiment: Inhibition of human leukocyte elastase
T2 sequence (P08246 whole entry): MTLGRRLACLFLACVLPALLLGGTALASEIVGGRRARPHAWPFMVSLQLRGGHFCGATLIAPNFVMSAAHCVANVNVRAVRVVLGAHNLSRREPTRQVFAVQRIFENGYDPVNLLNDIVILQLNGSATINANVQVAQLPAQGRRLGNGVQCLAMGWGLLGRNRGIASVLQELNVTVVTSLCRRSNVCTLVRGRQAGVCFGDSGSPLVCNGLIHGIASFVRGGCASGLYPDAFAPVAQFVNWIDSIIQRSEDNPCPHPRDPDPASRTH

[7] = Inhibition of human cytomegalovirus protease; design: species or system Human betaherpesvirus 5
[8] = Chemical stability of the compound in human plasma assessed as half life; type: ADME, cell-free
Hamster [9] = experiment: Antidyslipidemic activity in cholesterol-fed hamster model assessed as reduction in liver cholesteryl esters; type: functional; conditions: Cricetinae
Canis familiaris = species on record: Canis familiaris; experiment: Antidyslipidemic activity in cholesterol-fed Dog assessed as reduction in plasma cholesterol level; type: functional; conditions: Canis lupus familiaris

SMILES: Cc1ccc(C2N(c3ccc(C)cc3)C(=O)C2(Cl)Cl)cc1 (stereo unspecified)
- MIC (Pseudomonas aeruginosa): 125 µg/mL (≈ 390 µM)

SMILES: CC(C)(C)NC(=O)N1CCN(C(=O)N2C(=O)[C@H](CCCN=C(N)N)[C@H]2C(=O)O)CC1
- IC50 [1]: 4 nM

SMILES: N=C(N)N1CCC[C@@H](C[C@H]2C(=O)N(C(=O)N3CCN(C(=O)CCCCCc4ccccc4)CC3)[C@@H]2C(=O)O)C1
- IC50 [1]: < 1.7 nM

SMILES: COc1ccc(C2N(c3ccc(OC)cc3)C(=O)C2(Cl)Cl)cc1 (stereo unspecified)
- MIC (Pseudomonas aeruginosa): 125 µg/mL (≈ 355 µM)

SMILES: CCOC(=O)/C=C1\NC(=O)[C@@H]1[C@@H](C)OC(=O)c1cc(OCc2ccccc2)c(O)c(OCc2ccccc2)c1
- IC50 [2]: 4 µM

SMILES: N=C(N)N1CCC[C@H](C[C@H]2C(=O)N(C(=O)N3CCN(C(=O)CCCCCc4ccccc4)CC3)[C@@H]2C(=O)O)C1
- IC50 [1]: < 1.7 nM

SMILES: O=C(O)[C@@H]1[C@@H](CCC2CCCNC2)C(=O)N1C(=O)N1CCN(C(=O)CCCCCc2ccccc2)CC1 (stereo partly specified)
- IC50 [1]: 1.8 nM

SMILES: O=C1N(c2ccccc2)C(c2ccc([N+](=O)[O-])cc2)C1(Cl)Cl (stereo unspecified)
- MIC (Pseudomonas aeruginosa): 125 µg/mL (≈ 371 µM)

SMILES: CCOC(=O)/C=C1\[C@@H](C(C)O[Si](C)(C)C(C)(C)C)C(=O)N1C(=O)c1cc(OCc2ccccc2)c(OCc2ccccc2)c(OCc2ccccc2)c1 (stereo partly specified)
- IC50 (Neutrophil elastase): 500 nM

SMILES: O=C1N(c2ccc(Cl)cc2)C(c2ccc(Cl)cc2)C1(Cl)Cl (stereo unspecified)
- MIC (Pseudomonas aeruginosa): 125 µg/mL (≈ 346 µM)

SMILES: CCOc1ccccc1C[C@@H]1C(=O)N(C(=O)NC(c2ccccc2)c2ccccc2)[C@@H]1Oc1ccc(C(=O)O)cc1
- half-life [8]: 360 min
- IC50 (Chymase): 3.1 nM

SMILES: O=C1[C@H](CC[C@H](O)c2ccc(F)cc2)[C@@H](c2ccc(O)cc2)N1c1ccc(F)cc1 [EZETIMIBE]
- ED50 (Hamster [9]): 0.04 mg/kg/day
- ED50 (Canis familiaris): 0.007 mg/kg/day
- ED50 (Rhesus monkey): 0.5 µg/kg

Second part, led by results:

- IC50 (Chymase): 0.46 nM
SMILES: C[C@@H](NC(=O)N1C(=O)[C@@H](Cc2ccccc2)[C@H]1Oc1ccc(N2CCN(C)CC2)cc1)c1ccccc1

- IC50 [3]: 5 µM
SMILES: COc1ccc(C2C(O)C(=O)N2c2ccccc2)cc1N (stereo unspecified)

- IC50 (HepG2): 22 µM
- IC50 [6]: 26 µM
- IC50 (Caco-2): 32 µM
SMILES: COc1ccc([C@@H]2[C@@H](CCCc3ccccc3)C(=O)N2c2ccc(OC)cc2)cc1 [SCH-48461]
- ED50 (Hamster [4]): 2 mg/kg/day
- ED50 (Rhesus monkey): 0.2 mg/kg/day
- ED50 (Hamster [5]): 1 mg/kg/day
- ED50 (Rattus norvegicus): 2 mg/kg/day

- IC50 [7]: 70 nM
SMILES: CC[C@@H](NC(=O)N1C(=O)CC1SC[C@H](CC(C)C)NC(=O)[C@@H](NC(=O)CC(C)(C)C)C(C)(C)C)c1ccccc1 (stereo partly specified)

- MIC (Pseudomonas aeruginosa): 125 µg/mL (≈ 428 µM)
SMILES: O=C1N(c2ccccc2)C(c2ccccc2)C1(Cl)Cl (stereo unspecified)
